Measured values: patent US8859574B2 (IRM LLC, priority 2008, dated 2014)

biological target: T1, IGF-1R Ba/F3 (Homo sapiens, UniProt P08069); test: Ba/F3 Cell Viability Inhibition Assay (IGF-1R Ba/F3); type: cell-based, murine; settings: Tel-TK transformed Ba/F3 cells, 48 hours, Britelite luminescence
T1 construct: fused on or other part: TEL- (or BCR-) IGF-1R in Ba/F3: the kinase part holds the site
Excerpt: The IC50 of a drug may be determined constructing a dose-response curve and examining the effect of different concentrations of antagonist on reversing agonist activity. IC50 values may be calculated for a given antagonist by determining the concentration needed to inhibit half of the maximum biological response of the agonist. To calculate IC50 values, a series of dose-response data (e.g., drug concentrations x1, x2, . . . , xn and growth inhibition y1, y2, . . . , yn, the values of y are in the range of 0-1) is generated. IC50 values may be determined by a computer-aided system using the formula: y=D+((A−D)/(1+10^(x-log(IC50)B) • where A is the ratio of growth inhibition between lowest drug concentration and control; B is the slope of sigmoidal curvel; and D is the ratio of growth inhibition between highest drug concentration and control.
Ba/F3 is a murine IL-3-dependent pro-B lymphoma cell line. Parental Ba/F3 cells are used to generate a panel of sublines whose proliferation and survival is rendered IL-3-independent by stable transduction with individual tyrosine kinases activated by fusion with the amino-terminal portion of TEL (amino acid 1-375) or BCR. In order to generate Ba/F3 cell lines transformed by Tel-Tyrosine Kinase (TK) fusions, parental Ba/F3 cells are infected with a retrovirus harboring each TEL-fusion kinase and subjected to puromycin selection and IL-3 withdrawal to obtain IL-3-independent, transformed Ba/F3 cells.
Each transformed Ba/F3 cells are cultured in RPMI-1640 media (Gibco Cat #11875093, Carlsbad, Calif.) supplemented with 10% FBS (Hyclone Cat #SV30014.03, Logan, Utah), 4.5 g/L glucose (Sigma #G5400, St. Louis, Mo.), 1.5 g/L sodium bicarbonate (Biowhittaker #17-613E, Walkersville, Md.) and Pen/Strep (Gibco #10378-016, Carlsbad, Calif.). Cells are splitted twice weekly.
The potency of test compounds against various Tel-TK transformed Ba/F3 lines is determined as follows. Exponentially growing BaF3 Tel-TK cells are diluted in fresh medium to 75,000 cells/mL and seeded into 384-well plates (3750 cells/well) at 50 μL/well using a μFill liquid dispenser (BioTek, Winooski, Vt., USA). Duplicate plates are run for each cell line. Test and control compounds are serially diluted with DMSO and arrayed in a polypropylene 384-well plate. […] of compound is transferred into the assay plates using a pin-transfer device, and the plates are incubated at 37° C. (5% CO2) for 48 hours. 25 μL Britelite (Perkin Elmer) is added and luminescence is quantified using Analyst GT (Molecular Devices). Custom curve-fitting software is used to produce a logistic fit of percent cell viability as a function of the logarithm of inhibitor concentration. The IC50 is interpolated as the concentration of compound needed to reduce cell viability to 50% of a DMSO control. Parental Ba/F3 cells that are maintained and cultured in presence of IL-3 (1 ng/ml in final) are diluted in fresh medium containing IL-3 (1 ng/ml in final) to 75,000 cells/mL following the same procedure as described above.

T1 sequence (P08069 999-1274 limits assumed): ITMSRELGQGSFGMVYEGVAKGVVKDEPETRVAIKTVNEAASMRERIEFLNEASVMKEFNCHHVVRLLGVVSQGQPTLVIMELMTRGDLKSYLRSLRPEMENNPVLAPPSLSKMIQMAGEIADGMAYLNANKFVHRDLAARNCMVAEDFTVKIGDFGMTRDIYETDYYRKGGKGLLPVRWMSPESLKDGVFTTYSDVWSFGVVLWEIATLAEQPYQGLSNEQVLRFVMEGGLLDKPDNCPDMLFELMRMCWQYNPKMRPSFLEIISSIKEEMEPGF

Q: Which IC50 does the source give for `Cc1cc(Nc2nc(Nc3cc(C)c([C@H]4CCN[C@H](C)C4)cc3F)ncc2Cl)n[nH]1` (relative stereo) [Compound 279, 5-chloro-N2-(2-fluoro-5-methyl-4-((trans)-2-methylpiperidin-4-yl)phenyl)-N4-(5-methyl-1H-pyrazol-3-yl)pyrimidine-2,4-diamine] here?
A: 64 nM

Q: For `Cc1cc(Nc2nc(Nc3cc(C)c([C@H]4CCN[C@@H](C)C4)cc3F)ncc2Cl)n[nH]1` (relative stereo) [Compound 280, 5-chloro-N2-(2-fluoro-5-methyl-4-((cis)-2-methylpiperidin-4-yl)phenyl)-N4-(5-methyl-1H-pyrazol-3-yl)pyrimidine-2,4-diamine], which IC50 is on record?
A: 163 nM

Q: With `Cc1cc(Nc2ncc(Cl)c(N[C@H]3CCCCNC3=O)n2)c(F)cc1C1CCN(C)CC1` (single isomer, unassigned) [Compound 10] as the molecule, how does the IC50 read?
A: 869 nM

Q: For `Cc1cc(Nc2ncc(Cl)c(N[C@@H]3CCCCNC3=O)n2)c(F)cc1C1CCN(C)CC1` (single isomer, unassigned) [Compound 11], which IC50 is on record?
A: 65 nM

Q: How did the IC50 turn out when `CNC(=O)CN1CCC[C@H](c2cc(C)c(Nc3ncc(Cl)c(Nc4cc(C)[nH]n4)n3)cc2C)C1` (single isomer, unassigned) [Compound 207] was run?
A: 26 nM

Q: Which IC50 does the source give for `CNC(=O)CN1CCC[C@@H](c2cc(C)c(Nc3ncc(Cl)c(Nc4cc(C)[nH]n4)n3)cc2C)C1` (single isomer, unassigned) [Compound 208] here?
A: 10 nM

Q: Which IC50 does the source give for `Cc1cc(Nc2nc(Nc3cc(C)c(C4CCN(C(=O)[C@@H]5C(O)CCN5C)CC4)cc3F)ncc2Cl)n[nH]1` (stereo in doubt) [Compound 139, (4-(4-(5-chloro-4-(5-methyl-1H-pyrazol-3-ylamino)pyrimidin-2-ylamino)-5-fluoro-2-methylphenyl)piperidin-1-yl)((2S,3R)-3-hydroxy-1-methylpyrrolidin-2-yl)methanone] here?
A: 175 nM

Q: With `Cc1cc(Nc2nc(Nc3cc(C)c(C4CCN(C)CC4)cc3F)ncc2Cl)n[nH]1` [Compound 1, 5-Chloro-N2-(2-fluoro-5-methyl-4-(1-methylpiperidin-4-yl)phenyl)-N4-(5-methyl-1H-pyrazol-3-yl)pyrimidine-2,4-diamine] as the molecule, how does the IC50 read?
A: 11 nM

Q: `Cc1cc(Nc2nc(Nc3cc(C)c(C4CCNCC4)cc3F)ncc2Cl)n[nH]1` [Compound 2, 5-chloro-N2-(2-fluoro-5-methyl-4-(piperidin-4-yl)phenyl)-N4-(5-methyl-1H-pyrazol-3-yl)pyrimidine-2,4-diamine] was tested. Which IC50 did it give?
A: 50 nM

Q: `Cc1cc(Nc2nc(Nc3cc(C)c(C4CCN(C)CC4)cc3OC(C)C)ncc2Cl)n[nH]1` [Compound 3, 5-chloro-N2-(2-isopropoxy-5-methyl-4-(1-methylpiperidin-4-yl)phenyl)-N4-(5-methyl-1H-pyrazol-3-yl)pyrimidine-2,4-diamine] was tested. Which IC50 did it give?
A: 104 nM

Q: For `Cc1cc(Nc2nc(Nc3cc(C)c(C4CCNCC4)cc3F)ncc2C(F)(F)F)n[nH]1` [Compound 4, N2-(2-fluoro-5-methyl-4-(piperidin-4-yl)phenyl)-N4-(5-methyl-1H-pyrazol-3-yl)-5-(trifluoromethyl)pyrimidine-2,4-diamine], which IC50 is on record?
A: 150 nM

Q: `Cc1cc(Nc2nc(Nc3cc(C)c(C4CCN(C)CC4)cc3OC(C)C)ncc2C)n[nH]1` [Compound 5, N2-(2-isopropoxy-5-methyl-4-(1-methylpiperidin-4-yl)phenyl)-5-methyl-N4-(5-methyl-1H-pyrazol-3-yl)pyrimidine-2,4-diamine] was tested. Which IC50 did it give?
A: 805 nM

Q: How did the IC50 turn out when `Cc1cc(Nc2nc(Nc3cc(C)c(C4CCN(C)CC4)cc3C)ncc2Cl)n[nH]1` [Compound 6, 5-chloro-N2-(2,5-dimethyl-4-(1-methylpiperidin-4-yl)phenyl)-N4-(5-methyl-1H-pyrazol-3-yl)pyrimidine-2,4-diamine] was run?
A: 15 nM

Q: With `Cc1cc(Nc2nc(Nc3cc(Cl)c(C4CCN(C)CC4)cc3C)ncc2Cl)n[nH]1` [Compound 7, 5-chloro-N2-(5-chloro-2-methyl-4-(1-methylpiperidin-4-yl)phenyl)-N4-(5-methyl-1H-pyrazol-3-yl)pyrimidine-2,4-diamine] as the molecule, how does the IC50 read?
A: 15 nM

Q: For `Cc1cc(Nc2nc(Nc3cc(C4CCNCC4)c(F)cc3C)ncc2Cl)n[nH]1` [Compound 8, 5-chloro-N2-(4-fluoro-2-methyl-5-(piperidin-4-yl)phenyl)-N4-(5-methyl-1H-pyrazol-3-yl)pyrimidine-2,4-diamine], which IC50 is on record?
A: 1930 nM

Q: `Cc1cc(Nc2ncc(Cl)c(NC3CCCCNC3=O)n2)c(F)cc1C1CCN(C)CC1` (stereo not drawn) [Compound 9, 3-(5-chloro-2-(2-fluoro-5-methyl-4-(1-methylpiperidin-4-yl)phenylamino)pyrimidin-4-ylamino)azepan-2-one] was tested. Which IC50 did it give?
A: 87 nM

Q: For `Cc1cc(Nc2nc(Nc3cc(C)c(C4CCN(C(C)C)CC4)cc3C)ncc2Cl)n[nH]1` [Compound 12, 5-chloro-N2-(4-(1-isopropylpiperidin-4-yl)-2,5-dimethylphenyl)-N4-(5-methyl-1H-pyrazol-3-yl)pyrimidine-2,4-diamine], which IC50 is on record?
A: 10 nM

Q: Which IC50 does the source give for `Cc1cc(Nc2nc(Nc3cc(C)c(C4CCCCN4)cc3C)ncc2Cl)n[nH]1` (stereo not drawn) [Compound 14, 5-chloro-N2-(2,5-dimethyl-4-(piperidin-2-yl)phenyl)-N4-(5-methyl-1H-pyrazol-3-yl)pyrimidine-2,4-diamine] here?
A: 16 nM

Q: How did the IC50 turn out when `Cc1cc(Nc2nc(Nc3cc(C)c(C4CCCNC4)cc3C)ncc2Cl)n[nH]1` (stereo not drawn) [Compound 15, 5-chloro-N2-(2,5-dimethyl-4-(piperidin-3-yl)phenyl)-N4-(5-methyl-1H-pyrazol-3-yl)pyrimidine-2,4-diamine] was run?
A: 50 nM

Q: With `Cc1cc(Nc2nc(Nc3cc(C)c(C4CCCCN4C)cc3C)ncc2Cl)n[nH]1` (stereo not drawn) [Compound 16, 5-chloro-N2-(2,5-dimethyl-4-(1-methylpiperidin-2-yl)phenyl)-N4-(5-methyl-1H-pyrazol-3-yl)pyrimidine-2,4-diamine] as the molecule, how does the IC50 read?
A: 19 nM

Q: How did the IC50 turn out when `Cc1cc(Nc2ncc(Cl)c(Nc3cc(C4CC4)[nH]n3)n2)c(F)cc1C1CCNCC1` [Compound 17, 5-chloro-N4-(5-cyclopropyl-1H-pyrazol-3-yl)-N2-(2-fluoro-5-methyl-4-(piperidin-4-yl)phenyl)pyrimidine-2,4-diamine] was run?
A: 160 nM

Q: `Cc1cc(C2CCNCC2)c(C)cc1Nc1ncc(Cl)c(Nc2cc(C3CC3)[nH]n2)n1` [Compound 18, 5-chloro-N4-(5-cyclopropyl-1H-pyrazol-3-yl)-N2-(2,5-dimethyl-4-(piperidin-4-yl)phenyl)pyrimidine-2,4-diamine] was tested. Which IC50 did it give?
A: 95 nM

Q: `Cc1cc(Nc2nc(Nc3cc(C)c(C4CCN(Cc5c(C)noc5C)CC4)cc3F)ncc2Cl)n[nH]1` [Compound 19, 5-Chloro-N2-(4-(1-((3,5-dimethylisoxazol-4-yl)methyl)piperidin-4-yl)-2-fluoro-5-methylphenyl)-N4-(5-methyl-1H-pyrazol-3-yl)pyrimidine-2,4-diamine] was tested. Which IC50 did it give?
A: 56 nM

Q: How did the IC50 turn out when `Cc1cc(Nc2nc(Nc3cc(C)c(C4CCN(Cc5c(C)noc5C)CC4)cc3C)ncc2Cl)n[nH]1` [Compound 20, 5-chloro-N2-(4-(1-((3,5-dimethylisoxazol-4-yl)methyl)piperidin-4-yl)-2,5-dimethylphenyl)-N4-(5-methyl-1H-pyrazol-3-yl)pyrimidine-2,4-diamine] was run?
A: 11 nM

Q: With `Cc1cc(Nc2nc(Nc3cc(C)c(C4CCN(Cc5ccnnc5)CC4)cc3C)ncc2Cl)n[nH]1` [Compound 21, 5-chloro-N2-(2,5-dimethyl-4-(1-(pyridazin-4-ylmethyl)piperidin-4-yl)phenyl)-N4-(5-methyl-1H-pyrazol-3-yl)pyrimidine-2,4-diamine] as the molecule, how does the IC50 read?
A: 2 nM

Q: For `Cc1cc(Nc2nc(Nc3cc(C)c(C4CCN(CCO)CC4)cc3F)ncc2Cl)n[nH]1` [Compound 22, 2-(4-(4-(5-chloro-4-(5-methyl-1H-pyrazol-3-ylamino)pyrimidin-2-ylamino)-5-fluoro-2-methylphenyl)piperidin-1-yl)ethanol], which IC50 is on record?
A: 59 nM

Q: Which IC50 does the source give for `Cc1cc(Nc2nc(Nc3cc(C)c(C4CCN(CCO)CC4)cc3C)ncc2Cl)n[nH]1` [Compound 23, 2-(4-(4-(5-chloro-4-(5-methyl-1H-pyrazol-3-ylamino)pyrimidin-2-ylamino)-2,5-dimethylphenyl)piperidin-1-yl)ethanol] here?
A: 6 nM
